According to publication PMC9448861 (Frontiers in Pharmacology, 2022):
Where two headings read alike, the source gives them in different places.

What was measured:
[1] = test system: treatment-resistant depression; set-up: method as in Serafini et al., 2014; conditions: ref Serafini et al., 2014; cited from earlier work
[2] = test system: mice subjected to CRS and CRS + ZnD; assay: Tail suspension test (TST) in mice subjected to CRS or CRS + ZnD; assay type: in vivo, C57BL/6J mice; conditions: three doses, 72 h after the last treatment
Experimental: (§1) All the compounds/drugs used in the study were obtained commercially, except for hyperforin (sodium salt), which was received as a gift from Dr. Wilmar Schwabe GmbH and Co (Karlsruhe, Germany). […] The control group received only 0.9% NaCl.
(§2) One week after acclimation, the mice were subjected to either a zinc-adequate feed (ZnA, 50 mg/kg) or zinc-deficient/low-Zn feed (ZnD, 3 mg/kg). Beginning from the second week, some ZnD mice were additionally subjected to 3 weeks of CRS. At the beginning of the 5th week, the mice were subjected to their appropriate treatment schedules or behavioral tests (see schemes in the figures).
(§3) CRS was performed in accordance with the procedures of [Ding et al. (2016]) with modifications. Mice from the stress groups were restrained in well-ventilated tubes with caps and holes for breathing (in a separate room from the control groups) for 3 h/day over 3 weeks. After each restraint period, the mice were transferred to housing cages. The control mice were housed at 6 mice per cage in an enriched environment and were handled every third day.
The TST was performed as described in a previous work ([Pochwat et al., 2018]). Briefly, each mouse was suspended individually by the tail using adhesive tape (2 cm from the tail tip) affixed to a solid flat surface, and immobility times were measured for 6 min. […]

[3] = Pharmacokinetics of ketamine and its metabolite hydroxynorketamine in mouse serum, hippocampus and frontal cortex (noncompartmental analysis, LC-MS/MS); assay type: in vivo, C57BL/6J mice; conditions: for AUC0-∞ / t0.5λz / tmax / Cmax / MRT / k el / CL/F / Vd/F: ketamine 10 mg/kg i.p.; for Kp / Cmax / MRT / k el / CL/F / Vd/F: male, C57BL/6J, mouse, 10 mg/kg; for Kp: intraperitoneal; for Cmax / MRT / k el / CL/F / Vd/F: ip; for Cmax: read-out: Cmax; for MRT: read-out: MRT (converted); for k el: read-out: λz (converted); for Vd/F: read-out: Vz/F
[4] = test system: mice subjected to CRS and CRS + ZnD; assay: Sucrose preference test (SPT) in mice subjected to CRS or CRS + ZnD; assay type: in vivo, C57BL/6J mice; conditions: three doses (ketamine 10 mg/kg, Ro 10 mg/kg, Hyp 2.5 mg/kg + Lan 10 mg/kg), 24 h after the last treatment
Experimental: as §1, §2, §3
Seven days before the tests, the control and stressed mice were singly housed. The tests were carried out as follows. Two bottles (water and 1% sucrose solution) were placed in each cage 63 h before the test. Twenty-four hours later, the bottles were switched from right to left. Fifteen hours before the tests, the animals were deprived of food, water, and sucrose. The tests lasted 2 h, and sucrose preference was calculated as a percentage of the volume of sucrose intake over the total volume of fluid intake (water and sucrose solution). The SPT was performed during the light phase.

[5] = test system: Zn levels in the Hp and FC; assay: Analysis of zinc (F-AAS) in the Hp and FC; assay type: in vivo, C57BL/6J mice; conditions: CRS + ZnD mice; three doses
Experimental: as §1
The samples were mineralized before the experiments. Briefly, three independent test portions of 0.5 g each were weighed from each sample and transferred to Teflon vessels. Then, 2 mL of 30% H2O2 and 6 mL of 65% HNO3 (V) were added, and the mixture was subjected to wet mineralization in a closed system in a Magnum II mineralizer (ERTEC). Mineralization was carried out for 75 min with three cycles of magnetron operation, where the first 30 min was at 60% power, next 15 min was at 80% power, and the remaining 30 min was at 100% power. The mineralized solution thus obtained was heated on a hot plate at 120 °C for 60 min to remove the excess reagents. The samples were then quantitatively transferred to 10 mL flasks and used to determine the zinc content via the F–AAS method (adsorption and emission technique). An atomic absorption spectrometer (iCE 3500, Thermo Scientific, UK) was used to measure the Zn content; each sample was analyzed independently thrice, and the obtained results are presented as mean value ± standard error of mean (SEM).

[6] = frontal cortex, frontal cortex, CRS + ZnD mice
[7] = frontal cortex, frontal cortex, CRS mice
[8] = frontal cortex, frontal cortex, Control mice
[9] = hippocampus, hippocampus, CRS + ZnD mice
[10] = hippocampus, hippocampus, CRS mice
[11] = hippocampus, hippocampus, Control mice

CNC1(c2ccccc2Cl)CCCCC1=O (centres unmarked) [Ketamine, ketamine]
estimated efficacy [1]: 50–70% | immobility time in the TST [2]: ineffective | AUC0-∞ ([3]; frontal cortex, CRS + ZnD mice): 65.97 µg·min/g | t0.5λz ([3]; frontal cortex, CRS + ZnD mice): 32.31 min | tmax ([3]; frontal cortex, CRS + ZnD mice): 10 min | AUC0-∞ ([3]; frontal cortex, CRS mice): 106.58 µg·min/g | t0.5λz ([3]; frontal cortex, CRS mice): 34.92 min | tmax ([3]; frontal cortex, CRS mice): 10 min | AUC0-∞ ([3]; frontal cortex, Control mice): 97.81 µg·min/g | t0.5λz ([3]; frontal cortex, Control mice): 30.49 min | AUC0-∞ ([3]; hippocampus, CRS + ZnD mice): 58.49 µg·min/g | t0.5λz ([3]; hippocampus, CRS + ZnD mice): 42.69 min | tmax ([3]; hippocampus, CRS + ZnD mice): 10 min | AUC0-∞ ([3]; hippocampus, CRS mice): 96.13 µg·min/g | t0.5λz ([3]; hippocampus, CRS mice): 39.68 min | tmax ([3]; hippocampus, CRS mice): 10 min | AUC0-∞ ([3]; hippocampus, Control mice): 80.90 µg·min/g | t0.5λz ([3]; hippocampus, Control mice): 37.36 min | Kp ([3]; brain structure (not specified) / serum, CRS + ZnD animals, read-out: tissue-to-serum AUC ratio for the parent drug): 1.3 | Kp ([3]; brain structure (not specified) / serum, CRS + ZnD animals, read-out: tissue-to-serum Cmax ratio for the parent drug): 1 | Cmax [3, 6]: 2650 ng/g | MRT [3, 6]: 28.8 min | k el [3, 6]: 0.000367 s⁻¹ | Cmax [3, 7]: 3030 ng/g | MRT [3, 7]: 28.4 min | k el [3, 7]: 0.000333 s⁻¹ | Cmax [3, 8]: 3460 ng/g | MRT [3, 8]: 30.1 min | k el [3, 8]: 0.000383 s⁻¹ | Kp ([3]; hippocampus and frontal cortex / serum, control and stress (CRS) groups, Hp and FC, read-out: tissue-to-serum Cmax and AUC ratios for the parent drug): 2.45 to 2.84 | Cmax [3, 9]: 2310 ng/g | MRT [3, 9]: 31.3 min | k el [3, 9]: 0.000267 s⁻¹ | Cmax [3, 10]: 3180 ng/g | MRT [3, 10]: 28.5 min | k el [3, 10]: 0.000283 s⁻¹ | Cmax [3, 11]: 2990 ng/g | MRT [3, 11]: 30.4 min | k el [3, 11]: 0.000317 s⁻¹ | CL/F ([3]; serum, serum, CRS + ZnD mice): 220 mL/min/kg | Cmax ([3]; serum, serum, CRS + ZnD mice): 2150 ng/mL | MRT ([3]; serum, serum, CRS + ZnD mice): 22 min | Vd/F ([3]; serum, serum, CRS + ZnD mice): 11.6 L/kg | k el ([3]; serum, serum, CRS + ZnD mice): 0.000317 s⁻¹ | Cmax ([3]; serum, serum, CRS mice): 1120 ng/mL | MRT ([3]; serum, serum, CRS mice): 29.8 min | Vd/F ([3]; serum, serum, CRS mice): 14.6 L/kg | k el ([3]; serum, serum, CRS mice): 0.000317 s⁻¹ | Cmax ([3]; serum, serum, Control mice): 1130 ng/mL | MRT ([3]; serum, serum, Control mice): 34.2 min | Vd/F ([3]; serum, serum, Control mice): 16 L/kg | k el ([3]; serum, serum, Control mice): 0.000317 s⁻¹ | CL/F ([3]; serum, CRS mice): 270 mL/min/kg | CL/F ([3]; serum, Control mice): 300 mL/min/kg | t0.5λz ([3]; serum, CRS + ZnD mice): 35.93 min | tmax ([3]; serum, CRS + ZnD mice): 10 min | t0.5λz ([3]; serum, CRS mice): 37.06 min | tmax ([3]; serum, CRS mice): 10 min | t0.5λz ([3]; serum, Control mice): 36.70 min | sucrose preference in the SPT ([4]; CRS + ZnD mice): failed to restore sucrose preference | sucrose preference in the SPT ([4]; CRS mice): restored the sucrose preference | Zn levels in the Hp and FC [5]: reduced the Zn levels
